The values below come from ChEMBL document CHEMBL5257033, “Pyrrolidinone and pyrrolidine derivatives: Evaluation as inhibitors of InhA and Mycobacterium tuberculosis” (Eur J Med Chem, 2016).

In brackets after ≈: the same amount, converted by molar mass.

Common to all, as to assay type: functional
In experiment [1] the test system is Mycobacterium tuberculosis. Put plainly: Antimycobacterial activity against Mycobacterium tuberculosis 88.7 harboring pyrG V186G mutant assessed as inhibition of bacterial growth measured after 21 days by microbroth dilution method. The settings on record: time 21 day.
For experiment [2], the system named is Mycobacterium tuberculosis. Description: Antimycobacterial activity against Mycobacterium tuberculosis Ty1 harboring Rv3405c C190T mutant assessed as inhibition of bacterial growth measured after 21 days by microbroth dilution method. The settings on record: time 21 day. (In general: Broth dilution looks for growth in wells or tubes with falling amounts of substance.)

Experiment [3] deals with Mycobacterium tuberculosis. Description: Antimycobacterial activity against Mycobacterium tuberculosis DR1 harboring mmpL3 V681I mutant assessed as inhibition of bacterial growth measured after 21 days by microbroth dilution method. The settings on record: time 21 day.
The subject of experiment [4] is Mycobacterium tuberculosis. Description: Antimycobacterial activity against Mycobacterium tuberculosis NTB1 harboring DprE1 G387S mutant assessed as inhibition of bacterial growth measured after 21 days by microbroth dilution method. The settings on record: time 21 day.
Experiment [5] concerns Mycobacterium tuberculosis. Description: Antimycobacterial activity against Mycobacterium tuberculosis 53.3 harboring Rv2466c W28S mutant assessed as inhibition of bacterial growth measured after 21 days by microbroth dilution method. The settings on record: time 21 day.
In experiment [6] the test system is Mycobacterium tuberculosis. Description: Antimycobacterial activity against streptomycin, isoniazid, rifampicin, ethambutol, pyrazinamide, ethionamide and capreomycin resistant Mycobacterium tuberculosis IC2 assessed as inhibition of bacterial growth measured after 21 days by microbroth dilution method. The settings on record: IC2, 504 h, time 21 day.
Experiment [7] deals with Mycobacterium tuberculosis. Put plainly: Antimycobacterial activity against Mycobacterium tuberculosis 81.10 harboring EthA del (1109 to 37 residues) mutant assessed as inhibition of bacterial growth measured after 21 days by microbroth dilution method. The settings on record: time 21 day.

In general, MIC refers to the lowest concentration that inhibits growth of the organism. For the compound `Clc1ccc(CN2CCC(C3c4ccccc4-c4ccccc43)C2)cc1` (centres undefined), the MIC in experiment [1], in experiment [2], in experiment [3], in experiment [4], in experiment [5] and in experiment [6] was 0.5 µg/mL (≈ 1.39 µM) in each case. Also, the MIC in experiment [7] came to 0.5 µg/mL (≈ 1.39 µM).
As to `NNC(=O)c1ccncc1` [ISONIAZID], the MIC in experiment [1] was 0.025 µg/mL (≈ 0.182 µM); in experiment [2], 0.025 µg/mL (≈ 0.182 µM); in experiment [3] it was 0.025 µg/mL (≈ 0.182 µM); in experiment [4] it was 0.025 µg/mL (≈ 0.182 µM); in experiment [5], 0.025 µg/mL (≈ 0.182 µM); in experiment [6], more than 0.2 µg/mL. For the same compound, in experiment [7], the MIC was found to be 0.025 µg/mL (≈ 0.182 µM).
